From patent publication US12257214B2, “Compositions and methods comprising deoxy-pentitols” (The Charlotte Mecklenburg Hospital Authority, priority 2021, dated 2025)

Experiments:
J82 = assay: ATPlite cell IC50 screening, J82; type: cell-based; details: Homo sapiens; J82, Bladder carcinoma; ATPlite luminescence
Experimental: (§1) In brief, the cells were cultures in relevant medium and treated with a range of 9 doses of 2-deoxyribitol, from 10 mM, 5 mM, 2.5 mM, 1.25 mM, 0.62 mM, 0.31 mM, 0.08 mM, and 0.04 mM. Cells were diluted in the corresponding ATCC recommended medium and dispensed in a 384-well plate, depending on the cell line used, at a density of 100-6400 cells per well in 45 μl medium. For each used cell line the optimal cell density was used. The margins of the plate were filled with phosphate-buffered saline. Plated cells were incubated in a humidified atmosphere of 5% CO2 at 37° C. After 24 hours, 5 μl of compound dilution was added and plates were further incubated. At the end of experiment (t=end), 24 μl of ATPlite 1Step™ (PerkinElmer) solution was added to each well, and subsequently shaken for 2 minutes. After 10 minutes of incubation in the dark, the luminescence was recorded on an Envision multimode reader (PerkinElmer). IC50 was determined in comparison with the control samples. The cell lines tested and their corresponding disease model is indicated the left-most and middle columns, respectively. IC50 values are given in μM values in the right-most column. This screening was performed of a list of cancer cells to establish IC50 values for each of the cancer cell lines. This screening provides evidence for the potential of 2DR to treat many cancer types.

PA-1 = assay: ATPlite cell IC50 screening, PA-1; type: cell-based; details: Homo sapiens; PA-1, Ovarian mixed germ cell tumor; ATPlite luminescence
Experimental: as §1

DU 145 = assay: ATPlite cell IC50 screening, DU 145; type: cell-based; details: Homo sapiens; DU 145, Prostate carcinoma; ATPlite luminescence
Experimental: as §1

786-O = assay: ATPlite cell IC50 screening, 786-O; type: cell-based; details: Homo sapiens, 786-0, Renal cell carcinoma, ATPlite luminescence
Experimental: as §1

HCT 116 = assay: ATPlite cell IC50 screening, HCT 116; type: cell-based; details: Homo sapiens; HCT 116, Colon carcinoma; ATPlite luminescence
Experimental: as §1

THP-1 = assay: ATPlite cell IC50 screening, THP-1; type: cell-based; details: Homo sapiens; THP-1, Childhood acute monocytic leukemia; ATPlite luminescence
Experimental: as §1

MG-63 = assay: ATPlite cell IC50 screening, MG-63; type: cell-based; details: Homo sapiens; MG-63, Osteosarcoma; ATPlite luminescence
Experimental: as §1

LS411N = assay: ATPlite cell IC50 screening, LS411N; type: cell-based; details: Homo sapiens, LS-411N, Cecum adenocarcinoma, ATPlite luminescence
Experimental: as §1

HT = assay: ATPlite cell IC50 screening, HT; type: cell-based; details: Homo sapiens, Diffuse large B-cell lymphoma, ATPlite luminescence
Experimental: as §1

[1] = system: normal human breast epithelial cells MCF7-10F; assay: Normal breast epithelial cell culture (FIG. 8); type: cell-based; details: 2-40 mM, 4 days
Experimental: 2-deoxyribitol was given in ascending doses of 2 mM (top middle panel), 5 mM (top right panel), 10 mM (bottom left panel), 20 mM (bottom middle panel), and 40 mM (bottom right panel). No significant differences were observed between the control and drug-treated cells at any dose.
(§2) In contrast, 2-deoxyribitol produced unnoticeable changes in cell culture of normal human myoblasts or differentiated myotubes (FIG. 7), indicating its low toxicity potential to normal cell populations. In this study, normal human myoblasts (HSKM cells) were treated with 2-deoxyribitol (Drug) for 3 days.

JAR = assay: ATPlite cell IC50 screening, JAR; type: cell-based; details: Gestational choriocarcinoma, ATPlite luminescence
Experimental: as §1

T24 = assay: ATPlite cell IC50 screening, T24; type: cell-based; details: Homo sapiens, T-24; T24, Bladder carcinoma; ATPlite luminescence
Experimental: as §1

A-427 = assay: ATPlite cell IC50 screening, A-427; type: cell-based; details: Homo sapiens; A-427, Lung adenocarcinoma; ATPlite luminescence
Experimental: as §1

[2] = system: normal human myoblasts (HSKM cells); assay: Normal human myoblast culture (FIG. 7); type: cell-based; details: HSKM cells, 2, 10, 20 mM, 3 days
Experimental: Three different doses were tested as labeled in the images: 2 mM (top right panel), 10 mM (bottom left panel), and 20 mM (bottom right panel) 2-deoxyribitol. No-drug control is shown in top left panel. Drug effect on growth of the cells is not clearly visible.
as §2

[3] = system: hepatocarcinoma HEPG2 cells; assay: HEPG2 cell culture, growth and death (FIG. 6); type: cell-based
Experimental: The cells grow into large sheets (Control; top left panel), but remain tightly packed with limited cytoplasm. Cells were treated with 5 mM (top middle panel), 10 mM (top right panel), 20 mM (bottom left panel), or 40 mM (bottom right panel) 2-deoxyribitol (Drug). A dose-dependent decrease in cell density and increase in volume of cytoplasm is observed with the drug treatment.
2-deoxyribitol was also found to be effective at inhibiting the growth of and inducing cell death in the hepatocarcinoma cell HEPG2. […] HEPG2 cells have a clonal growth pattern with tightly-packed cells growing out to fill the surrounding empty space. […] Small numbers of cell death were also detected in the remaining narrow areas where the size of the cells was relatively smaller than those of surrounding cells.

C-33 A = assay: ATPlite cell IC50 screening, C-33 A; type: cell-based; details: Homo sapiens, Cervical squamous cell carcinoma, ATPlite luminescence
Experimental: as §1

Water solubility = type: physicochemical
From the text: It can be delivered by direct application to local areas, given orally or through vasculature system. 2-deoxyribitol can also be delivered before, at the same time, or after the use of other drugs. 2-deoxyribitol can be applied as treatment for cancers before, at the same time, or after any other treatment procedure(s). In addition, the effect of 2-deoxyribitol on three tissue types of cancers indicate that it can be applied for many other epithelial cancers.

RKO = assay: ATPlite cell IC50 screening, RKO; type: cell-based; details: Homo sapiens, Colon carcinoma, ATPlite luminescence
Experimental: as §1

ACHN = assay: ATPlite cell IC50 screening, ACHN; type: cell-based; details: Homo sapiens, Papillary renal cell carcinoma, ATPlite luminescence
Experimental: as §1

SW982 = assay: ATPlite cell IC50 screening, SW982; type: cell-based; details: Homo sapiens; SW982, Biphasic synovial sarcoma; ATPlite luminescence
Experimental: as §1

CCRF-CEM = assay: ATPlite cell IC50 screening, CCRF-CEM; type: cell-based; details: Homo sapiens, Childhood T acute lymphoblastic leukemia, ATPlite luminescence
Experimental: as §1

NCI-H82 = assay: ATPlite cell IC50 screening, NCI-H82; type: cell-based; details: Homo sapiens; NCI-H82, Small cell lung carcinoma; ATPlite luminescence
Experimental: as §1

G-361 = assay: ATPlite cell IC50 screening, G-361; type: cell-based; details: Homo sapiens; G-361, Melanoma; ATPlite luminescence
Experimental: as §1

**Q.** Which results are given for OCC[C@H](O)[C@H](O)CO [2-deoxyribitol]?
**A.** IC50 (J82): 3.63 mM; IC50 (PA-1): 3.49 mM; IC50 (DU 145): 4.87 mM; IC50 (786-O): 8.57 mM; IC50 (HCT 116): 5.73 mM; IC50 (THP-1): 5.19 mM; IC50 (MG-63): 9.27 mM; IC50 (LS411N): 6.97 mM; IC50 (HT): 6.89 mM; growth inhibition or cell death of normal breast cells [1]: did not inhibit growth or cause cell death; IC50 (JAR): 3.6 mM; IC50 (T24): > 10 mM; IC50 (A-427): 3.95 mM; cell density or myofiber formation versus control [2]: No difference in cell density or myofiber formation; effect on number of cells and cytoplasm ([3]; HEPG2, 5-40 mM): decreased the number of cells with increasing amount of cytoplasm dose-dependently; cell size relative to control cells ([3]; HEPG2, majority of cells, dose of 20 mM or higher): three or more times larger; IC50 (C-33 A): 7.6 mM; water solubility (Water solubility): water soluble; IC50 (RKO): 5.77 mM; IC50 (ACHN): 3.14 mM; IC50 (SW982): 2.78 mM; IC50 (CCRF-CEM): 5.97 mM; IC50 (NCI-H82): 2.94 mM; IC50 (G-361): > 10 mM
